Reference: patent US10597388B2, “Pyridazinone herbicides” (FMC CORPORATION, priority 2014, dated 2020)

Legend:
Format in all cases: in vivo
soybean (Glycine max) = experiment: Test C greenhouse herbicide test, pre- and postemergence
Outline: (§1)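 Each species was treated both before emergence, in a loam–sand soil mix, and after emergence, as 1- to 4-leaf seedlings in peat-based potting medium. Plants stayed in the greenhouse 13 to 15 d, then were scored from 0 (no effect) to 100 (complete control) relative to controls.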

[1] = system: johnsongrass (Sorghum halepense); experiment: as above
Outline: as §1

[2] = system: nutsedge, yellow (yellow nutsedge, Cyperus esculentus); experiment: as above
Outline: as §1

[3] = system: galium (catchweed bedstraw, Galium aparine); experiment: Test A greenhouse herbicide test, postemergence
Outline: (§2)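 Plants grown in loam soil/sand blend pots were treated postemergence at 2 to 10 cm height, one- to two-leaf stage, with formulated test chemicals. After approximately 10 d in a greenhouse, injury was rated visually against untreated controls on a 0 to 100 scale (0 no effect, 100 complete control).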

[4] = system: blackgrass (Alopecurus myosuroides); experiment: Test A greenhouse herbicide test, postemergence
Outline: as §2

[5] = system: oat, wild (wild oat, Avena fatua); experiment: Test C greenhouse herbicide test, postemergence; settings: Postemergence
Outline: (§3)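 Plants grown in potting mix of peat moss, vermiculite, wetting agent and starter nutrients were sprayed postemergence at 2 to 18 cm height (1- to 4-leaf stage). After 13 to 15 d in the greenhouse, injury was visually rated against untreated controls on a 0–100 scale (0 no effect, 100 complete control).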

[6] = system: chickweed (common chickweed, Stellaria media); experiment: Test C greenhouse herbicide test, postemergence; settings: for Plant response rating, Chickweed: Postemergence; for Chickweed plant response rating: postemergence, 62 g ai/ha
Outline: as §3

kochia (Kochia scoparia) = experiment: Test C greenhouse herbicide test, postemergence; settings: Postemergence
Outline: as §3

rice (Oryza sativa) = experiment: Test B flooded paddy test; settings: 250 g ai/ha, Flood; visual rating on scale of 0 to 100 where 0 is no effect and 100 is complete control; 13 to 15 d after treatment
Outline: (§4)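 Plants at the 2-leaf stage were flooded to 3 cm above soil, and test compounds were applied directly into the paddy water, which was held at that depth throughout. After 13 to 15 d in a greenhouse, injury was rated visually against untreated controls on a 0–100 scale (0 no effect, 100 complete control).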

[7] = system: barnyardgrass (Echinochloa crus-galli); experiment: Test B flooded paddy test; settings: 250 g ai/ha, Flood; visual rating on scale of 0 to 100 where 0 is no effect and 100 is complete control; 13 to 15 d after treatment
Outline: as §4

[8] = system: ducksalad (Heteranthera limosa); experiment: Test B flooded paddy test; settings: 250 g ai/ha, Flood; visual rating on scale of 0 to 100 where 0 is no effect and 100 is complete control; 13 to 15 d after treatment
Outline: as §4

[9] = system: sedge, umbrella (small-flower umbrella sedge, Cyperus difformis); experiment: Test B flooded paddy test; settings: 250 g ai/ha, Flood; visual rating on scale of 0 to 100 where 0 is no effect and 100 is complete control; 13 to 15 d after treatment
Outline: as §4

[10] = Postemergence, 31 g ai/ha, scale 0 to 100 (0 no effect, 100 complete control)
[11] = Postemergence, 125 g ai/ha, scale 0 to 100, 0 is no effect, 100 is complete control
[12] = Postemergence, 250 g ai/ha, scale 0 to 100, 0 no effect, 100 complete control, 13 to 15 d
[13] = Preemergence, 31 g ai/ha, scale 0 to 100, 0 is no effect, 100 is complete control
[14] = Preemergence, 62 g ai/ha, scale 0 to 100, 0 is no effect, 100 is complete control
[15] = Preemergence, 125 g ai/ha, scale 0 to 100, 0 is no effect, 100 is complete control
[16] = Preemergence, 250 g ai/ha, scale 0 to 100, 0 no effect, 100 complete control
[17] = 125 g ai/ha, 0 to 100 scale where 0 is no effect and 100 is complete control
[18] = 500 g ai/ha, visual rating after approx. 10 d, 0 to 100 scale (0 no effect, 100 complete control)
[19] = 31 g ai/ha, scale 0 to 100 (0 no effect, 100 complete control)
[20] = 125 g ai/ha, scale 0 to 100, 0 is no effect, 100 is complete control
[21] = 250 g ai/ha, scale 0 to 100, 0 no effect, 100 complete control, 13 to 15 d
[22] = scale 0 to 100, 0 no effect, 100 complete control

For `CCC(=O)Oc1c(C)nn(C)c(=O)c1-c1ccc(F)c2ccccc12` [Compound 113], the “Plant response rating, Soybean” value (soybean (Glycine max); [10]) was 15, the “Plant response rating, Soybean” value (soybean (Glycine max); [11]) was 40 and the “Plant response rating, Soybean” value (soybean (Glycine max); [12]) was 55. The “Plant response rating, Soybean” value (soybean (Glycine max); [13]) was 0, the “Plant response rating, Soybean” value (soybean (Glycine max); [14]) was 45 and the “Plant response rating, Soybean” value (soybean (Glycine max); [15]) was 65. The “Soybean plant response rating” value (soybean (Glycine max); [16]) was 80, the “Plant response rating, Johnsongrass” value [1, 10] was 0 and the “Plant response rating, Johnsongrass” value [1, 11] was 10. For the same compound, the “Plant response rating, Johnsongrass” value [1, 12] was 20, the “Plant response rating, Johnsongrass” value [1, 13] was 0 and the “Plant response rating, Johnsongrass” value [1, 14] was 10. For the same compound, the “Plant response rating, Johnsongrass” value [1, 15] was 20, the “Johnsongrass plant response rating” value [1, 16] was 30 and the “Plant response rating, Nutsedge, Yellow” value [2, 10] was 70. For the same compound, the “Plant response rating, Nutsedge, Yellow” value [2, 11] was 85, the “Plant response rating, Nutsedge, Yellow” value [2, 12] was 95 and the “Plant response rating, Nutsedge, Yellow” value [2, 13] was 55. For the same compound, the “Plant response rating, Nutsedge, Yellow” value [2, 14] was 70, the “Plant response rating, Nutsedge, Yellow” value [2, 15] was 85 and the “Nutsedge, Yellow plant response rating” value [2, 16] was 85. For the same compound, the “Plant response rating, Galium” value [3, 17] was 100, the “Plant response rating, Galium” value [3, 18] was 100 and the “Plant response rating, Blackgrass” value [4, 17] was 90. The “Plant response rating, Blackgrass” value [4, 18] was 90, the “Plant response rating, Oat, Wild” value [5, 19] was 90 and the “Plant response rating, Oat, Wild” value [5, 20] was 90. For the same compound, the “Plant response rating, Oat, Wild” value [5, 21] was 90, the “Plant response rating, Chickweed” value [6, 19] was 90 and the “Plant response rating, Chickweed” value [6, 20] was 98. For the same compound, the “Plant response rating, Chickweed” value [6, 21] was 100, the “Chickweed plant response rating” value [6, 22] was 90 and the “Plant response rating, Kochia” value (kochia (Kochia scoparia); [19]) was 95. The “Plant response rating, Kochia” value (kochia (Kochia scoparia); [20]) was 95, the “Plant response rating, Kochia” value (kochia (Kochia scoparia); [21]) was 100 and the “Plant response rating, Rice” value (rice (Oryza sativa)) was 0. The “Plant response rating, Barnyardgrass” value [7] was 0, the “Plant response rating, Ducksalad” value [8] was 0 and the “Plant response rating, Sedge, Umbrella” value [9] was 0.

`Cc1nn(C)c(=O)c(-c2c(C)sc3ccc(C(F)(F)F)cc23)c1O` [Compound 121] was tested, and the “Plant response rating, Soybean” value (soybean (Glycine max); [10]) was 0, the “Plant response rating, Soybean” value (soybean (Glycine max); [11]) was 0 and the “Plant response rating, Soybean” value (soybean (Glycine max); [12]) was 0. For the same compound, the “Plant response rating, Soybean” value (soybean (Glycine max); [13]) was 0, the “Plant response rating, Soybean” value (soybean (Glycine max); [14]) was 0 and the “Plant response rating, Soybean” value (soybean (Glycine max); [15]) was 0. The “Soybean plant response rating” value (soybean (Glycine max); [16]) was 0, the “Plant response rating, Johnsongrass” value [1, 10] was 0 and the “Plant response rating, Johnsongrass” value [1, 11] was 5. The “Plant response rating, Johnsongrass” value [1, 12] was 5, the “Plant response rating, Johnsongrass” value [1, 13] was 0 and the “Plant response rating, Johnsongrass” value [1, 14] was 0. For the same compound, the “Plant response rating, Johnsongrass” value [1, 15] was 0, the “Johnsongrass plant response rating” value [1, 16] was 10 and the “Plant response rating, Nutsedge, Yellow” value [2, 10] was 45. The “Plant response rating, Nutsedge, Yellow” value [2, 11] was 85, the “Plant response rating, Nutsedge, Yellow” value [2, 12] was 75 and the “Plant response rating, Nutsedge, Yellow” value [2, 13] was 10. The “Plant response rating, Nutsedge, Yellow” value [2, 14] was 25, the “Plant response rating, Nutsedge, Yellow” value [2, 15] was 20 and the “Nutsedge, Yellow plant response rating” value [2, 16] was 50. For the same compound, the “Plant response rating, Galium” value [3, 17] was 70, the “Plant response rating, Galium” value [3, 18] was 90 and the “Plant response rating, Blackgrass” value [4, 17] was 20. For the same compound, the “Plant response rating, Blackgrass” value [4, 18] was 50, the “Plant response rating, Oat, Wild” value [5, 19] was 65 and the “Plant response rating, Oat, Wild” value [5, 20] was 80. The “Plant response rating, Oat, Wild” value [5, 21] was 90, the “Plant response rating, Chickweed” value [6, 19] was 90 and the “Plant response rating, Chickweed” value [6, 20] was 90. For the same compound, the “Plant response rating, Chickweed” value [6, 21] was 98, the “Chickweed plant response rating” value [6, 22] was 90 and the “Plant response rating, Kochia” value (kochia (Kochia scoparia); [19]) was 90. The “Plant response rating, Kochia” value (kochia (Kochia scoparia); [20]) was 95, the “Plant response rating, Kochia” value (kochia (Kochia scoparia); [21]) was 95 and the “Plant response rating, Rice” value (rice (Oryza sativa)) was 0. For the same compound, the “Plant response rating, Barnyardgrass” value [7] was 0, the “Plant response rating, Ducksalad” value [8] was 0 and the “Plant response rating, Sedge, Umbrella” value [9] was 0.
